The record followed here is patent US10428099B2, “Pharmaceutical co-crystal composition and use thereof” (SYN-NAT PRODUCTS ENTERPRISE LLC, priority 2015, dated 2019).

The test system of test [1] is HL-7002 cells. Put plainly: cells. As to conditions: Homo sapiens, Hepatocyte.
For another test, the system named is HCT-116 cells. Put plainly: MTS cell viability assay in colorectal cancer cell line HCT-116. The format is cell-based. As to conditions: step-wise concentrations 0.01 to 300 μM, OD490, FIG. 5, read-out: IC50 for the reduction of HCT-116 cell number. On the technique in general: Tetrazolium assays rely on reduction of a dye to a coloured formazan, in cell work by metabolically active cells.

Test [2] concerns HL-7002 cells. As to conditions: step-wise concentrations 0.01 to 300 μM, OD490, FIG. 3 and FIG. 7.
The test system of another test is HT29 cells. Put plainly: MTS cell viability assay in colorectal cancer cell line HT29. The format is cell-based. The note with it: step-wise concentrations 0.01 to 300 μM, OD490, FIG. 6.
The next test relates to HEK293 cells. As to conditions: step-wise concentrations 0.01 to 300 μM, OD490, FIG. 4 and FIG. 8.
For another test, the system named is LNCaP cells. Put plainly: MTS cell viability assay (CellTiter 96 AQueous One) in LNCaP prostate cancer cells. The format is cell-based, human. The note with it: step-wise concentrations 0.01 to 300 μM, OD490, FIG. 2.
The subject of the next test is PC-3 cells. Put plainly: MTS cell viability assay (CellTiter 96 AQueous One) in PC-3 prostate cancer cells. Type of test: cell-based, human. As to conditions: step-wise concentrations 0.01 to 300 μM, OD490, FIG. 1.

Read-outs that look alike come from different tables or passages of the source.

Protocol for HCT-116 cells: (§1) The index of cell growth repression ratio was obtained by comparing the OD490 data of treatment group to the negative control. The drug response rate IC50 was calculated with the SPSS 16.0 system.
(§2) The cells were cultured in RPMI+5% Fetal Bovine Serum (FBS).
(§3) The cells were monitored daily, and the cell viability was evaluated with the Promega CellTiter 96 AQueous One Solution Cell Proliferation Assay (Promega, Madison, Wis., USA) according to the manufacture manuals. The cell viability was monitored at OD490 reading in a bio-spectrometer (Perkin Elmer, Walthan, Mass., USA).
(§4) Data analysis: The OD490 reading data were collected hourly from 1 h to 4 h after the addition of lysis buffer. The index of cell growth repression ratio was obtained by comparing the OD490 data of treatment to the negative control. The drug response rate IC50 was calculated with the SPSS 16.0.
Protocol for HT29 cells: HT29 cells are a colorectal cancer cell line. […] The index of cell growth repression ratio was obtained by comparing the OD490 data of treatment group to the negative control. The drug response rate IC50 was calculated with the SPSS 16.0 system.
as §2, §3, §4
Protocol for LNCaP cells: as §1
(§5) Cell culture: Prostate cancer cell lines LNCaP and PC-3 were purchased from ATCC (Manassas, Va.). […] The cells were cultured in RPMI+5% Fetal Bovine Serum (FBS).
(§6) The cells treated with the solvents were used as the negative control, and cisplatin and docetaxel were used as the positive controls. The cells were monitored daily, and the cell viability was evaluated with the Promega CellTiter 96 AQueous One Solution Cell Proliferation Assay (Promega, Madison, Wis., USA) according to the manufacture manuals. The cell viability was monitored at OD490 reading in a bio-spectrometer (Perkin Elmer, Walthan, Mass., USA).
Data analysis: The OD490 reading data were collected hourly from 1 h to 4 h after the addition of lysis buffer. The index of cell growth repression ratio was obtained by comparing the OD490 data of treatment to the negative control.
Protocol for PC-3 cells: as §1, §5, §6, §4

With `CC(=O)O[C@@]12CO[C@@H]1C[C@H](O)[C@@]1(C)C(=O)[C@H](O)C3=C(C)[C@@H](OC(=O)[C@H](O)[C@@H](NC(=O)OC(C)(C)C)c4ccccc4)C[C@@](O)([C@@H](OC(=O)c4ccccc4)[C@H]21)C3(C)C` [docetaxel], in the test on HL-7002 cells [1], the IC50 (in general, the concentration that inhibits the measured activity by half) worked out at 95 nM.
Consider `O=C1[O][Pt]2([NH][C@@H]3CCCC[C@H]3[NH]2)[O]C1=O` [oxaliplatin], for which the IC50 is 8150 nM with HCT-116 cells, 2440 nM in the test with HL-7002 cells [2], 30000 nM with HT29 cells and 10100 nM in the test with HEK293 cells.
cisplatin: the IC50 stood at 2240 nM with LNCaP cells, 2490 nM in the test on PC-3 cells, 2010 nM with HL-7002 cells [2] and 6900 nM with HEK293 cells.
